# Experimental data published in patent US11472778B2, “Hepatitis C virus NS3/4A protease inhibitors” (priority 2017, dated 2022).
# Read-outs that look alike come from different tables or passages of the source.
# What was measured:
# [1] = biological target: GT1a R155K NS3/4A protease (UniProt P27958, R1181K, species not given); format: biochemical, Hepatitis C virus
# In short: (§1)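 2 nM NS3/4A protease (GT1a, R155K and D168A constructs) pre-incubated 1 h at room temperature with increasing inhibitor concentrations in 50 mM Tris pH 7.5, 5% glycerol, 10 mM DTT, 0.6 mM LDAO, 4% DMSO. Three independent data sets per inhibitor and construct; ΔG of binding derived from Ki as ΔG=RTlnKi.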
# [2] = biological target: GT1a R155K NS3/4A protease; format: biochemical, Hepatitis C virus; conditions: fold change in Ki, R155K relative to WT
# In short: as §1
# GT3a NS3/4A protease = biological target: T1, GT3a NS3/4A protease (Hepatitis C virus genotype 3a, UniProt Q81495); test: biochemical
# T1 construct: drug-resistant variant D168A, and GT3a NS3/4A protease; made in house; host or cells: Escherichia coli BL21(DE3)
# T1 sequence (Q81495 1033-1214): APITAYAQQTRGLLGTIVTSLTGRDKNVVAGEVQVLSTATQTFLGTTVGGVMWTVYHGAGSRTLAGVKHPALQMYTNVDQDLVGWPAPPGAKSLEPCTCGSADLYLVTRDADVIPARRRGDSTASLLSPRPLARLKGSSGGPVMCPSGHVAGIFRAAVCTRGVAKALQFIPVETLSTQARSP
# In short: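 Protease at 2 nM pre-incubated 1 h at room temperature with increasing inhibitor concentrations in 50 mM Tris, 5% glycerol, 10 mM DTT, 0.6 mM LDAO, 4% DMSO. Three independent data sets per inhibitor and construct.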
# [3] = test system: wild-type HCV replicon in Huh7 cells; test: Cell-based drug susceptibility (replicon) assay, wild-type; conditions: Hepatitis C virus, read-out: Replicon EC50 (nM) WT
# In short: (§2)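 Luciferase signal (RLU) at 96 h post-electroporation served as the replication read-out. Huh7 cells received replicon RNA of a Con1 1b backbone bearing H77 1a NS3, wild-type or site-directed mutant, and were dosed with increasing protease inhibitor concentrations.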
# [4] = test system: HCV replicon R155K variant in Huh7 cells; test: microbe, parasite or virus in culture; format: cell-based, Hepatitis C virus; conditions: for EC50: Hepatitis C virus
# In short: as §2
# [5] = test system: HCV replicon D168A variant in Huh7 cells; test: microbe, parasite or virus in culture; format: cell-based, Hepatitis C virus; conditions: for EC50: Hepatitis C virus
# In short: as §2
# [6] = test system: HCV replicon A156T variant in Huh7 cells; test: microbe, parasite or virus in culture; format: cell-based, Hepatitis C virus; conditions: for EC50: Hepatitis C virus
# In short: as §2
# [7] = biological target: T2, wild-type GT1a NS3/4A protease (UniProt P27958); format: biochemical, Hepatitis C virus
# T2 construct: Ki WT; other: wild-type HCV NS3/4A protease
# In short: (§3)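 Enzyme (GT1a wild type or D168A mutant, 2 nM) was preincubated with inhibitor dilutions for 1 h at room temperature in pH 7.5 Tris buffer with glycerol, DTT, LDAO and 4% DMSO.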
# [8] = biological target: T3, GT1a D168A NS3/4A protease (UniProt P27958, D1194A, species not given); format: biochemical, Hepatitis C virus
# T3 construct: rows headed: Ki (nM) D168A; Ki D168A; other: D168A variant
# In short: as §3
# [9] = biological target: T4, GT1a D168A NS3/4A protease (UniProt P27958, C1185S/D1194A, species not given); format: biochemical, Hepatitis C virus; conditions: read-out: Ki (nM) GT1a D168A NS3/4A Protease
# T4 construct: Ki (nM) GT1a D168A NS3/4A Protease
# In short: as §3
# [10] = biological target: T5, wild-type GT1a NS3/4A protease (UniProt P27958, C1185S, species not given); format: biochemical, Hepatitis C virus; conditions: read-out: Ki (nM) GT1a WT NS3/4A Protease
# T5 construct: Ki (nM) GT1a WT NS3/4A Protease
# In short: as §3
# [11] = biological target: GT1a D168A NS3/4A protease; format: biochemical, Hepatitis C virus; conditions: for Ki (Fold Change) D168A: Table 6, with respect to GT1a wild-type
# In short: as §3
# [12] = rcm bond; 15-membered ring; Zhan 1b; 1,2-DCE; 6.0 mM; 70.0 °C
# [13] = test system: HCV replicon D168V variant in Huh7 cells; test: microbe, parasite or virus in culture; format: cell-based, Hepatitis C virus; conditions: for EC50: Hepatitis C virus
# In short: as §2
# [14] = biological target: T6, wild-type GT1a NS3/4A protease (UniProt P27958, C1185S, species not given); format: biochemical, Hepatitis C virus; conditions: read-out: Ki (nM) GT1a WT; Table 6; P4/P4-P5 modified macrocycles
# T6 construct: P4/P4-P5 modified macrocycles
# In short: as §3
# [15] = biological target: T7, GT1a D168A NS3/4A protease (UniProt P27958, C1185S/D1194A, species not given); format: biochemical, Hepatitis C virus; conditions: read-out: Ki (nM) D168A; Table 6; P4/P4-P5 modified macrocycles
# T7 construct: P4/P4-P5 modified macrocycles
# In short: as §3
# [16] = Table 4, relative to WT replicon
structure (smiles),measurement,setting,value
"CCc1nc2ccc(OC)cc2nc1O[C@@H]1C[C@H]2C(=O)N[C@]3(C(=O)NS(=O)(=O)C4CC4)C[C@H]3/C=C\CCCCC[C@H](NC(=O)OC(C)(C)C)C(=O)N2C1 [Compound 2, tert-Butyl ((2R,6S,13aS,14aR,16aS,Z)-14a-((cyclopropylsulfonyl)carbamoyl)-2-((3-ethyl-7-methoxyquinoxalin-2-yl)oxy)-5,16-dioxo-1,2,3,5,6,7,8,9,10,11,13a,14,14a,15,16,16a-hexadecahydrocyclopropa[e]pyrrolo[1,2-a][1,4]diazacyclopentadecin-6-yl)carbamate]",Ki,"[1]; read-out: Ki (nM) R155K, Table 8, linear inhibitors",3.1 ± 0.34 nM
same,Ki,"[1]; read-out: Ki R155K, R155K variant",3.1 ± 0.34 nM
same,Ki R155K (fold change),[2],1.6
same,Ki,GT3a NS3/4A protease,204 nM
same,Ki (Fold change) GT3a NS3/4A Protease,"GT3a NS3/4A protease; Table 3, Ki GT3a relative to GT1a WT",(62) fold
same,EC50,"[3]; Huh-7, 96 h, Table 2, Huh7 cells, luciferase 96 h",0.33 nM
same,EC50,"[3]; Huh-7, Table 4",0.33 nM
same,EC50,"[3]; Huh-7, Table 9",0.33 nM
same,EC50,"[4]; Huh-7, 96 h, read-out: Replicon EC50 (nM) R155K, Table 2, Huh7 cells, luciferase 96 h",1.75 nM
same,EC50,"[4]; Huh-7, read-out: Replicon EC50 (nM) R155K, Table 4",1.75 nM
same,EC50,"[4]; Huh-7, read-out: Replicon EC50 (nM) R155K, Table 9",1.8 nM
same,Replicon EC50 (Fold change) R155K,[4]; [16],(5) fold
same,Replicon EC50 (Fold change) R155K,"[4]; Table 9, relative to WT",(5.5) fold
same,EC50,"[5]; Huh-7, 96 h, read-out: Replicon EC50 (nM) D168A, Table 2, Huh7 cells, luciferase 96 h",6.31 nM
same,EC50,"[5]; Huh-7, read-out: Replicon EC50 (nM) D168A, Table 4",6.31 nM
same,EC50,"[5]; Huh-7, read-out: Replicon EC50 (nM) D168A, Table 9",6.3 nM
same,Replicon EC50 (Fold change) D168A,[5]; [16],(19) fold
same,Replicon EC50 (Fold change) D168A,"[5]; Table 9, relative to WT",(19) fold
same,EC50,"[6]; Huh-7, 96 h, read-out: Replicon EC50 (nM) A156T, Table 2, Huh7 cells, luciferase 96 h",9.65 nM
same,EC50,"[6]; Huh-7, read-out: Replicon EC50 (nM) A156T, Table 4",9.65 nM
same,EC50,"[6]; Huh-7, read-out: Replicon EC50 (nM) A156T, Table 9",9.7 nM
same,Replicon EC50 (Fold change) A156T,[6]; [16],(29) fold
same,Replicon EC50 (Fold change) A156T,"[6]; Table 9, relative to WT",(29) fold
same,Ki,"[7]; read-out: Ki (nM) WT, Table 8, linear inhibitors",2 nM
same,Ki,"[7]; read-out: Ki WT, wild-type HCV NS3/4A protease",2 ± 0.1 nM
same,Ki,"[8]; read-out: Ki (nM) D168A, Table 8, linear inhibitors",91 ± 10 nM
same,Ki,"[8]; read-out: Ki D168A, D168A variant",91 ± 10 nM
same,Ki,[9]; Table 1,82.4 nM
same,Ki,[9]; Table 3,82.4 ± 4.4 nM
same,Ki,[10]; Table 1,3.29 nM
same,Ki,[10]; Table 3,3.29 nM
same,Ki (Fold change) GT1a D168A NS3/4A Protease,"[11]; Table 3, Ki D168A relative to GT1a WT",(25) fold
same,Ki D168A (fold change),"[11]; fold change in Ki, D168A relative to WT",46
same,"ring closure, isolated yield",[12],53%
same,EC50,"[13]; Huh-7, 96 h, read-out: Replicon EC50 (nM) D168V, Table 2, Huh7 cells, luciferase 96 h",9.1 nM
same,EC50,"[13]; Huh-7, read-out: Replicon EC50 (nM) D168V, Table 4",9.1 nM
same,EC50,"[13]; Huh-7, read-out: Replicon EC50 (nM) D168V, Table 9",9.1 nM
same,Replicon EC50 (Fold change) D168V,[13]; [16],(28) fold
same,Replicon EC50 (Fold change) D168V,"[13]; Table 9, relative to WT",(28) fold
"COc1ccc2nc(C)c(O[C@@H]3C[C@H]4C(=O)N[C@]5(C(=O)NS(=O)(=O)C6(C)CC6)C[C@H]5/C=C\CCCCC[C@H](NC(=O)OC5(C)CCCC5)C(=O)N4C3)nc2c1 [Compound P4-3, 1-methylcyclopentyl ((2R,6S,13aS,14aR,16aS,Z)-2-((7-methoxy-3-methylquinoxalin-2-yl)oxy)-14a-(((1-methylcyclopropyl)sulfonyl)carbamoyl)-5,16-dioxo-1,2,3,5,6,7,8,9,10,11,13a,14,14a,15,16,16a-hexadecahydrocyclopropa[e]pyrrolo[1,2-a][1,4]diazacyclopentadecin-6-yl)carbamate]",Ki,[14],1.78 ± 0.3 nM
same,Ki,[15],16 nM
same,Ki (Fold Change) D168A,[11],(9) fold
"COC(=O)N[C@H](C(=O)N[C@H]1CCCCC/C=C\[C@@H]2C[C@@]2(C(=O)NS(=O)(=O)C2(C)CC2)NC(=O)[C@@H]2C[C@@H](Oc3nc4cc(OC)ccc4nc3C)CN2C1=O)C(C)(C)C [Compound P4-P5-1, Methyl ((S)-1-(((2R,6S,13aS,14aR,16aS,Z)-2-((7-methoxy-3-methylquinoxalin-2-yl)oxy)-14a-(((1-methylcyclopropyl)sulfonyl)carbamoyl)-5,16-dioxo-1,2,3,5,6,7,8,9,10,11,13a,14,14a,15,16,16a-hexadecahydrocyclopropa[e]pyrrolo[1,2-a][1,4]diazacyclopentadecin-6-yl)amino)-3,3-dimethyl-1-oxobutan-2-yl)carbamate]",Ki,[14],29.5 nM
same,Ki,[15],201 ± 15 nM
same,Ki (Fold Change) D168A,[11],(8) fold
COc1ccc2nc(C)c(O[C@@H]3C[C@H]4C(=O)N[C@]5(C(=O)NS(=O)(=O)C6(C)CC6)C[C@H]5/C=C\CCCCC[C@H](NC(=O)[C@@H](NC(C)=O)C(C)(C)C)C(=O)N4C3)nc2c1 [Compound P4-P5-2],Ki,[14],23.9 ± 1.7 nM
same,Ki,[15],215 ± 16 nM
same,Ki (Fold Change) D168A,[11],(9) fold
"COC(=O)N[C@H](C(=O)N[C@H]1CCCCC/C=C\[C@@H]2C[C@@]2(C(=O)NS(=O)(=O)C2(C)CC2)NC(=O)[C@@H]2C[C@@H](Oc3nc4cc(OC)ccc4nc3C)CN2C1=O)C(C)C [Compound P4-P5-3, Methyl ((S)-1-(((2R,6S,13aS,14aR,16aS,Z)-2-((7-methoxy-3-methylquinoxalin-2-yl)oxy)-14a-(((1-methylcyclopropyl)sulfonyl)carbamoyl)-5,16-dioxo-1,2,3,5,6,7,8,9,10,11,13a,14,14a,15,16,16a-hexadecahydrocyclopropa[e]pyrrolo[1,2-a][1,4]diazacyclopentadecin-6-yl)amino)-3-methyl-1-oxobutan-2-yl)carbamate]",Ki,[14],13 ± 0.8 nM
same,Ki,[15],102 ± 6.8 nM
same,Ki (Fold Change) D168A,[11],(8) fold
COc1ccc2nc(C)c(O[C@@H]3C[C@H]4C(=O)N[C@]5(C(=O)NS(=O)(=O)C6(C)CC6)C[C@H]5/C=C\CCCCC[C@H](NC(=O)[C@@H](NC(C)=O)C(C)C)C(=O)N4C3)nc2c1 [Compound P4-P5-4],Ki,[14],11.1 ± 0.5 nM
same,Ki,[15],141 ± 18 nM
same,Ki (Fold Change) D168A,[11],(13) fold
"COC(=O)N[C@H](C(=O)N[C@H]1CCCCC/C=C\[C@@H]2C[C@@]2(C(=O)NS(=O)(=O)C2(C)CC2)NC(=O)[C@@H]2C[C@@H](Oc3nc4cc(OC)ccc4nc3C)CN2C1=O)C1CCCC1 [Compound P4-P5-5, Methyl ((S)-1-cyclopentyl-2-(((2R,6S,13aS,14aR,16aS,Z)-2-((7-methoxy-3-methylquinoxalin-2-yl)oxy)-14a-(((1-methylcyclopropyl)sulfonyl)carbamoyl)-5,16-dioxo-1,2,3,5,6,7,8,9,10,11,13a,14,14a,15,16,16a-hexadecahydrocyclopropa[e]pyrrolo[1,2-a][1,4]diazacyclopentadecin-6-yl)amino)-2-oxoethyl)carbamate]",Ki,[14],3.54 ± 0.13 nM
same,Ki,[15],31.6 ± 2.1 nM
same,Ki (Fold Change) D168A,[11],(9) fold
